Experimental data published in BindingDB's records for patent US20230357253 (The Scripps Research Institute, 2023).

biological target: Stimulator of interferon genes protein (Homo sapiens, UniProt Q86WV6); assay: WT STING Binding Assay
Procedure: Upon proximity of the two dyes, the excitation of the donor by the flash lamp on the PHERAstar FSX plate reader triggers a Fluorescence Resonance Energy Transfer (FRET) towards the acceptor, which in turn fluoresces at 665 nm. To assess the ability of the synthetic small molecule STING ligands to bind to human STING, a competitive assay format was applied. A 10-point titration of each of the synthetic ligands in 5 uL were transferred into a 384 well plate, followed by 20 uL of assay buffer containing the 6×His-tagged human STING protein and labeled 2′3′cGAMP ligand and incubated for three hours at room temperature. The raw values obtained from the PHERAstar were used to calculate the reported IC50 values (the signal is inversely proportional to the binding of the synthetic ligand) through curve fitting in Genedata. The percent inhibition was calculated based upon the maximal amount of binding by synthetic compound versus the maximum binding of unlabeled 2′3′ cGAMP which was used as a control in each assay.

Chain of Stimulator of interferon genes protein (Q86WV6 whole entry): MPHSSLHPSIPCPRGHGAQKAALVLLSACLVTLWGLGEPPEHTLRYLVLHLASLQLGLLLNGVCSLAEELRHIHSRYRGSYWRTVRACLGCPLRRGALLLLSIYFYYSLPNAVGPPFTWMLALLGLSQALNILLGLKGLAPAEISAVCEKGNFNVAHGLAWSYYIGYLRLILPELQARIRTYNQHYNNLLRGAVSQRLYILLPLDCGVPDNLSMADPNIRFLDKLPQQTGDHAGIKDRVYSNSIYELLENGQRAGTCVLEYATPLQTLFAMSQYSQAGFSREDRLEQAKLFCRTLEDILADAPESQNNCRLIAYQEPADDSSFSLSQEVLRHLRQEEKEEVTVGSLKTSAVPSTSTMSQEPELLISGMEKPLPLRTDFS

`COc1cc(C(=O)O)c(NC(=O)c2ccc(-n3ccnc3)nn2)cc1OCCc1cc(C(=O)O)c(NC(=O)c2ccc(-n3ccnc3)nn2)cc1Cl` [US20230357253, Compound 156] and `O=C(Nc1cc(OCCc2cc(C(=O)O)c(NC(=O)c3ccc(-n4ccnc4)nn3)cc2Cl)c(F)cc1C(=O)O)c1ccc(-n2ccnc2)nn1` [US20230357253, Compound 166] cannot be ordered by IC50: less than 10 nM for the first, less than 10 nM for the second.

`O=C(Nc1cc(CSCc2cc(NC(=O)c3ccc(-n4ccnc4)nn3)c(C(=O)O)cc2F)c(F)cc1C(=O)O)c1ccc(-n2ccnc2)nn1` [US20230357253, Compound 132] and `O=C(Nc1cc(CCCc2cc(NC(=O)c3ccc(-n4ccnc4)nn3)c(C(=O)O)cc2F)c(F)cc1C(=O)O)c1ccc(-n2ccnc2)nn1` [US20230357253, Compound 3] cannot be ordered by IC50: less than 10 nM for the first, less than 10 nM for the second.

`O=C(Nc1cc(OCCc2c(F)cc(NC(=O)c3ccc(-n4ccnc4)nn3)c(C(=O)O)c2F)c(F)cc1C(=O)O)c1ccc(-n2ccnc2)nn1` [US20230357253, Compound 177] and `O=C(Nc1cc(OCCc2cc(C(=O)O)c(NC(=O)c3ccc(-n4ccnc4)nn3)cc2F)c(F)cc1C(=O)O)c1ccc(-n2ccnc2)nn1` [US20230357253, Compound 144] cannot be ordered by IC50: less than 10 nM for the first, less than 10 nM for the second.

`O=C(Nc1cc(OCCCCOc2ccc(C(=O)O)c(NC(=O)c3ccc4nnnn4n3)c2)ccc1C(=O)O)c1ccc2nnnn2n1` [US20230357253, Compound 32] and `O=C(Nc1cc(OCCCOc2ccc(NC(=O)c3ccc4nnnn4n3)c(C(=O)O)c2)ccc1C(=O)O)c1ccc2nnnn2n1` [US20230357253, Compound 25] cannot be ordered by IC50: greater than 1000 nM for the first, greater than 1000 nM for the second.

`COc1cc(C(=O)O)c(NC(=O)c2ccc(-n3ccnc3)nn2)cc1CCCc1cc(NC(=O)c2ccc(-n3ccnc3)nn2)c(C(=O)O)cc1F` [US20230357253, Compound 59] and `O=C(Nc1cc(CCCc2cc(NC(=O)c3ccc(-n4ccnc4)nn3)c(C(=O)O)cc2Cl)c(F)cc1C(=O)O)c1ccc(-n2ccnc2)nn1` [US20230357253, Compound 174] cannot be ordered by IC50: less than 10 nM for the first, less than 10 nM for the second.

`O=C(Nc1cc(F)c(CCCc2cc(NC(=O)c3ccc4nnnn4n3)c(C(=O)O)cc2F)cc1C(=O)O)c1ccc(-n2ccnc2)nn1` [US20230357253, Compound 94] and `O=C(Nc1cc(CCCc2cc(C(=O)O)c(NC(=O)c3ccc4nnnn4n3)cc2F)c(F)cc1C(=O)O)c1ccc(-n2ccnc2)nn1` [US20230357253, Compound 90] cannot be ordered by IC50: less than 10 nM for the first, less than 10 nM for the second.

`N#Cc1cc(C(=O)O)c(NC(=O)c2ccc(-n3ccnc3)nn2)cc1CCOc1cc(NC(=O)c2ccc(-n3ccnc3)nn2)c(C(=O)O)cc1F` [US20230357253, Compound 162] and `N#Cc1cc(C(=O)O)c(NC(=O)c2ccc(-n3ccnc3)nn2)cc1CCCc1cc(NC(=O)c2ccc(-n3ccnc3)nn2)c(C(=O)O)cc1F` [US20230357253, Compound 182] cannot be ordered by IC50: less than 10 nM for the first, less than 10 nM for the second.

Going from `O=C(Nc1cc(OCCCCOc2cnc(C(=O)O)c(NC(=O)c3ccc(-n4ccnc4)nn3)c2)cnc1C(=O)O)c1ccc(-n2ccnc2)nn1` [US20230357253, Compound 45] to `O=C(Nc1cc(OCCCCOc2cc(NC(=O)c3ccc(-n4ccnc4)nn3)c(C(=O)O)cc2F)ccc1C(=O)O)c1ccc(-n2ccnc2)nn1` [US20230357253, Compound 19], the IC50 falls from greater than 1000 nM to less than 10 nM. The second is the more potent here.

`O=C(Nc1cc(CCCc2cc(C(=O)O)c(NC(=O)c3ccc4nnnn4n3)cc2F)c(N2CCOCC2)cc1C(=O)O)c1ccc(-n2ccnc2)nn1` [US20230357253, Compound 108] and `O=C(Nc1cc(CCCc2cc(NC(=O)c3ccc(-n4ccnc4)nn3)c(C(=O)O)cc2F)c(F)cc1C(=O)O)c1ccc(N2CCOCC2)nn1` [US20230357253, Compound 212] cannot be ordered by IC50: greater than 1000 nM for the first, greater than 1000 nM for the second.

`O=C(Nc1cc(OCCOc2cc(C(=O)O)c(NC(=O)c3ccc(-n4ccnc4)nn3)cc2F)c(F)cc1C(=O)O)c1ccc(-n2ccnc2)nn1` [US20230357253, Compound 191] and `O=C(Nc1cc(OCCCOc2cc(NC(=O)c3ccc(-n4ccnc4)nn3)c(C(=O)O)cc2F)c(F)cc1C(=O)O)c1ccc(-n2ccnc2)nn1` [US20230357253, Compound 168] cannot be ordered by IC50: less than 10 nM for the first, less than 10 nM for the second.

Compared with `CC(Cc1cc(NC(=O)c2ccc(-n3ccnc3)nn2)c(C(=O)O)cc1F)Cc1cc(NC(=O)c2ccc(-n3ccnc3)nn2)c(C(=O)O)cc1F` [US20230357253, Compound 194], `O=C(Nc1cc(CCc2cc(C(=O)O)c(NC(=O)c3ccc(-n4ccnc4)nn3)cc2F)c(F)cc1C(=O)O)c1ccc(-n2ccnc2)nn1` [US20230357253, Compound 180] is higher in IC50: less than 10 nM for the first, greater than 1000 nM for the second.

`O=C(Nc1ccc(OCOc2ccc(NC(=O)c3ccc(-n4ccnc4)nn3)c(C(=O)O)c2)cc1C(=O)O)c1ccc(-n2ccnc2)nn1` [US20230357253, Compound 138] and `O=C(Nc1cc(OCc2cc(C(=O)O)c(NC(=O)c3ccc(-n4ccnc4)nn3)cc2F)c(F)cc1C(=O)O)c1ccc(-n2ccnc2)nn1` [US20230357253, Compound 190] cannot be ordered by IC50: greater than 1000 nM for the first, greater than 1000 nM for the second.

`COc1cc(C(=O)O)c(NC(=O)c2ccc(-n3ccnc3)nn2)cc1CCCc1ccc(C(=O)O)c(NC(=O)c2ccc(-n3ccnc3)nn2)c1` [US20230357253, Compound 56] and `O=C(Nc1cc(CCCc2cc(NC(=O)c3ccc(-n4ccnc4)nn3)c(C(=O)O)cc2F)ccc1C(=O)O)c1ccc(-n2ccnc2)nn1` [US20230357253, Compound 68] cannot be ordered by IC50: less than 10 nM for the first, less than 10 nM for the second.

First: O=C(Nc1cc(CC[S+]([O-])c2cc(NC(=O)c3ccc(-n4ccnc4)nn3)c(C(=O)O)cc2F)c(F)cc1C(=O)O)c1ccc(-n2ccnc2)nn1 (stereo not drawn) [US20230357253, Compound 200]
Second: O=C(Nc1cc(CCSc2cc(NC(=O)c3ccc(-n4ccnc4)nn3)c(C(=O)O)cc2F)c(F)cc1C(=O)O)c1ccc(-n2ccnc2)nn1 [US20230357253, Compound 195]
The IC50 of the first is higher: greater than 1000 nM for the first, less than 10 nM for the second.

`O=C(Nc1cc(OCCCOc2cc(C(=O)O)c(NC(=O)c3ccc4nnnn4n3)cc2F)c(F)cc1C(=O)O)c1ccc2nnnn2n1` [US20230357253, Compound 33] and `O=C(Nc1cc(OCCOc2cc(C(=O)O)c(NC(=O)c3ccc4nnnn4n3)cc2F)ccc1C(=O)O)c1ccc2nnnn2n1` [US20230357253, Compound 26] cannot be ordered by IC50: greater than 1000 nM for the first, greater than 1000 nM for the second.

`O=C(Nc1cc(CCOc2cc(NC(=O)c3ccc(-c4cn[nH]c4)nn3)c(C(=O)O)cc2F)c(F)cc1C(=O)O)c1ccc(-c2cn[nH]c2)nn1` [US20230357253, Compound 4] and `O=C(Nc1cc(OCCc2cc(C(=O)O)c(NC(=O)c3ccc(-c4cn[nH]c4)nn3)cc2F)c(F)cc1C(=O)O)c1ccc(-c2cn[nH]c2)nn1` [US20230357253, Compound 204] cannot be ordered by IC50: less than 10 nM for the first, less than 10 nM for the second.

`O=C(Nc1cc(CCCc2cc(C(=O)O)c(NC(=O)c3ccc(-n4ccnc4)nn3)cc2F)ccc1C(=O)O)c1ccc(-n2ccnc2)nn1` [US20230357253, Compound 78] and `O=C(Nc1cc(CCCc2cc(C(=O)O)c(NC(=O)c3ccc(-n4ccnc4)nn3)cc2F)c(F)cc1C(=O)O)c1ccc(-n2ccnc2)nn1` [US20230357253, Compound 70] cannot be ordered by IC50: less than 10 nM for the first, less than 10 nM for the second.

First: Cn1nccc1-c1ccc(C(=O)Nc2cc(CCCc3cc(NC(=O)c4ccc(-n5ccnc5)nn4)c(C(=O)O)cc3F)c(F)cc2C(=O)O)nn1 [US20230357253, Compound 207]
Second: O=C(Nc1cc(CCCc2cc(NC(=O)c3ccc(-n4ccnc4)nn3)c(C(=O)O)cc2F)c(F)cc1C(=O)O)c1ccc(-c2cn[nH]c2)nn1 [US20230357253, Compound 159]
The IC50 of the first is higher: greater than 1000 nM for the first, less than 10 nM for the second. The second is the more potent here.

Compared with `CC(CCOc1cc(NC(=O)c2ccc(-n3ccnc3)nn2)c(C(=O)O)cc1F)Oc1cc(NC(=O)c2ccc(-n3ccnc3)nn2)c(C(=O)O)cc1F` (stereo not drawn) [US20230357253, Compound 5], `O=C(O)Cc1cc(F)c(CCOc2cc(NC(=O)c3ccc(-n4ccnc4)nn3)c(C(=O)O)cc2F)cc1NC(=O)c1ccc(-n2ccnc2)nn1` [US20230357253, Compound 133] is higher in IC50: less than 10 nM for the first, greater than 1000 nM for the second.

`O=C(Nc1cc(CCCOc2cc(NC(=O)c3ccc4nnnn4n3)c(C(=O)O)cc2F)c(F)cc1C(=O)O)c1ccc(-n2ccnc2)nn1` [US20230357253, Compound 126] and `O=C(Nc1cc(OCCc2cc(C(=O)O)c(NC(=O)c3ccc4nnnn4n3)cc2F)c(F)cc1C(=O)O)c1ccc(-n2ccnc2)nn1` [US20230357253, Compound 169] cannot be ordered by IC50: less than 10 nM for the first, less than 10 nM for the second.

`O=C(Nc1cc(CCCc2cc(NC(=O)c3ccc(-n4ccnc4)nn3)c(C(=O)O)s2)c(F)cc1C(=O)O)c1ccc(-n2ccnc2)nn1` [US20230357253, Compound 164] and `O=C(Nc1cc(CCCCc2cc(C(=O)O)c(NC(=O)c3ccc(-n4ccnc4)nn3)cc2F)c(F)cc1C(=O)O)c1ccc(-n2ccnc2)nn1` [US20230357253, Compound 127] cannot be ordered by IC50: less than 10 nM for the first, less than 10 nM for the second.

`O=C(Nc1c(C(=O)O)cc(F)c(OCCCCOc2c(F)cc(C(=O)O)c(NC(=O)c3ccc(-n4ccnc4)nn3)c2F)c1F)c1ccc(O)nn1` [US20230357253, Compound 39] and `O=C(Nc1cc(OCCCCOc2ccc(C(=O)O)c(NC(=O)c3ccc(-n4ccnc4)nn3)c2)ccc1C(=O)O)c1ccc(O)nn1` [US20230357253, Compound 35] cannot be ordered by IC50: greater than 1000 nM for the first, greater than 1000 nM for the second.

Compared with `O=C(Nc1cc(CCOc2cc(NC(=O)c3ccc(-n4ccnc4)nn3)c(C(=O)O)cc2F)c(F)cc1C(=O)O)c1ccc(-c2cn[nH]c2)nn1` [US20230357253, Compound 205], `O=C(Nc1cc(CCCc2cc(NC(=O)c3ccc(-n4ccnc4)nn3)c(C(=O)O)cc2F)c(F)cc1C(=O)O)c1ccc(N2CCNCC2)nn1` [US20230357253, Compound 214] is higher in IC50: less than 10 nM for the first, greater than 1000 nM for the second. The first is the more potent here.

`O=C(Nc1cc(CCc2ccc(C(=O)O)c(NC(=O)c3ccc4nnnn4n3)c2)ccc1C(=O)O)c1ccc2nnnn2n1` [US20230357253, Compound 29] and `O=C(Nc1cc(CCCc2ccc(NC(=O)c3ccc4nnnn4n3)c(C(=O)O)c2)ccc1C(=O)O)c1ccc2nnnn2n1` [US20230357253, Compound 13] cannot be ordered by IC50: greater than 1000 nM for the first, greater than 1000 nM for the second.
